Legend:
barnyardgrass [1] = assay: Test A preemergence; assay type: in vivo, Echinochloa crus-galli; conditions: for Barnyardgrass plant response rating: 500 g ai/ha
How it was run: (§1)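 Visual 0–100 rating (100 = complete control) taken about 10 d post-treatment relative to untreated checks. Preemergence: directed soil spray on sown loam/sand pots. Postemergence: seedlings 2–10 cm, 1–2 leaf. Non-phytotoxic solvent formulation with surfactant.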

corn = assay: Test A preemergence; assay type: in vivo, Zea mays; conditions: for Corn plant response rating: 500 g ai/ha
How it was run: as §1

barnyardgrass [2] = assay: Test A postemergence; assay type: in vivo, Echinochloa crus-galli; conditions: 0 to 100 scale where 0 is no effect and 100 is complete control; for Barnyardgrass plant response rating: 125 g ai/ha; for Plant response rating, Barnyardgrass: 500 g ai/ha
How it was run: as §1

wheat = assay: Test A postemergence; assay type: in vivo, Triticum aestivum; conditions: 0 to 100 scale where 0 is no effect and 100 is complete control; for Wheat plant response rating: 125 g ai/ha; for Plant response rating, Wheat: 500 g ai/ha
How it was run: as §1

blackgrass = assay: Test C postemergence; assay type: in vivo, Alopecurus myosuroides; conditions: for Plant response rating (0 to 100), Blackgrass: 16 g ai/ha, 0 is no effect, 100 is complete control; for Blackgrass plant response rating: 31 g ai/ha; for Blackgrass plant response rating / Plant response rating, Blackgrass: scale 0 to 100 (0 no effect, 100 complete control)
Source text: (§2) Seeds of plant species selected from blackgrass (Alopecurus myosuroides), Italian ryegrass (Lolium multiflorum), wheat, winter (winter wheat, Triticum aestivum), galium (catchweed bedstraw, Galium aparine), corn (Zea mays), large (Lg) crabgrass (Digitaria sanguinalis), giant foxtail (Setaria faberii), johnsongrass (Sorghum halepense), lambsquarters (Chenopodium album), morningglory (Ipomoea coccinea), yellow nutsedge (Cyperus esculentus), pigweed (Amaranthus retroflexus), ragweed (common ragweed, Ambrosia elatior), soybean (Glycine max), barnyardgrass (Echinochloa crus-galli), oilseed rape (Brassica napus), waterhemp (common waterhemp, Amaranthus rudis), kochia (Kochia scoparia), wild oat (Avena fatua), surinam grass (Brachiaria decumbens), foxtail, green (green foxtail, Setaria viridis), goosegrass (Eleusine indica), bromegrass, downy (downy bromegrass, Bromus tectorum), nightshade (eastern black nightshade, Solanum ptycanthum), cocklebur (common cocklebur, Xanthium strumarium), cupgrass, woolly (woolly cupgrass, Eriochloa villosa), bermudagrass (Cynodon dactylon), sunflower, (common oilseed sunflower, Helianthus annuus), Russian thistle (Salsola kali), and velvetleaf (Abutilon theophrasti) were planted into a blend of loam soil and sand and treated preemergence with test chemicals formulated in a non-phytotoxic solvent mixture which included a surfactant.
(§3) At the same time, plants selected from these crop and weed species and also barley, winter (winter barley, Hordeum vulgare), windgrass (Apera spica-venti), chickweed (common chickweed, Stellaria media), deadnettle (henbit deadnettle, Lamium amplexicaule), and canarygrass (littleseed canarygrass, Phalaris minor) were planted in pots containing Redi-Earth® planting medium (Scotts Company, 14111 Scottslawn Road, Marysville, Ohio 43041) comprising spaghnum peat moss, vermiculite, wetting agent and starter nutrients and treated with postemergence applications of test chemicals formulated in the same manner. Plants ranged in height from 2 to 18 cm (1- to 4-leaf stage) for postemergence treatments. Treated plants and controls were maintained in a greenhouse for 13 to 15 days, after which time all species were compared to controls and visually evaluated. Plant response ratings, summarized in Table C, are based on a scale of 0 to 100 where 0 is no effect and 100 is complete control. A dash (-) response means no test result.

galium = assay: Test C postemergence; assay type: in vivo, Galium aparine; conditions: for Plant response rating (0 to 100), Galium: 16 g ai/ha, 0 is no effect, 100 is complete control; for Galium plant response rating: 31 g ai/ha; for Galium plant response rating / Plant response rating, Galium: scale 0 to 100 (0 no effect, 100 complete control)
Source text: as §2, §3

giant foxtail = assay: Test C postemergence; assay type: in vivo, Setaria faberii; conditions: for Plant response rating (0 to 100), Foxtail, Giant: 16 g ai/ha, 0 is no effect, 100 is complete control; for Foxtail, Giant plant response rating: 31 g ai/ha; for Foxtail, Giant plant response rating / Plant response rating, Foxtail, Giant: scale 0 to 100 (0 no effect, 100 complete control)
Source text: as §2, §3

lambsquarters = assay: Test C postemergence; assay type: in vivo, Chenopodium album; conditions: for Plant response rating (0 to 100), Lambsquarters: 16 g ai/ha, 0 is no effect, 100 is complete control; for Lambsquarters plant response rating: 31 g ai/ha; for Lambsquarters plant response rating / Plant response rating, Lambsquarters: scale 0 to 100 (0 no effect, 100 complete control)
Source text: as §2, §3

ragweed = assay: Test C postemergence; assay type: in vivo, Ambrosia elatior; conditions: for Plant response rating (0 to 100), Ragweed: 16 g ai/ha, 0 is no effect, 100 is complete control; for Ragweed plant response rating: 31 g ai/ha; for Ragweed plant response rating / Plant response rating, Ragweed: scale 0 to 100 (0 no effect, 100 complete control)
Source text: as §2, §3

soybean = assay: Test C postemergence; assay type: in vivo, Glycine max; conditions: for Plant response rating (0 to 100), Soybean: 16 g ai/ha, 0 is no effect, 100 is complete control; for Soybean plant response rating: 31 g ai/ha; for Soybean plant response rating / Plant response rating, Soybean: scale 0 to 100 (0 no effect, 100 complete control)
Source text: as §2, §3

velvetleaf = assay: Test C postemergence; assay type: in vivo, Abutilon theophrasti; conditions: for Plant response rating (0 to 100), Velvetleaf: 16 g ai/ha, 0 is no effect, 100 is complete control; for Velvetleaf plant response rating: 31 g ai/ha; for Velvetleaf plant response rating / Plant response rating, Velvetleaf: scale 0 to 100 (0 no effect, 100 complete control)
Source text: as §2, §3

[3] = 0 to 100 scale where 0 is no effect and 100 is complete control
[4] = postemergence, visual rating, 13 to 15 days
[5] = 125 g ai/ha, postemergence, visual rating
[6] = Postemergence, 62 g ai/ha, 13 to 15 days
[7] = 125 g ai/ha, 0 to 100 scale where 0 is no effect and 100 is complete control

Row | SMILES | Barnyardgrass plant response rating (barnyardgrass [1]; [3]) | Corn plant response rating (corn; [3]) | Barnyardgrass plant response rating (barnyardgrass [2]) | Plant response rating, Barnyardgrass (barnyardgrass [2]) | Wheat plant response rating (wheat) | Plant response rating, Wheat (wheat) | Plant response rating (0 to 100), Blackgrass (blackgrass; postemergence) | Blackgrass plant response rating (blackgrass; [4]) | Plant response rating, Blackgrass (blackgrass; [5]) | Plant response rating (0 to 100), Galium (galium; postemergence) | Galium plant response rating (galium; [4]) | Plant response rating, Galium (galium; [5]) | Plant response rating (0 to 100), Foxtail, Giant (giant foxtail; postemergence) | Foxtail, Giant plant response rating (giant foxtail; [4]) | Plant response rating, Foxtail, Giant (giant foxtail; [5]) | Plant response rating (0 to 100), Lambsquarters (lambsquarters; postemergence) | Lambsquarters plant response rating (lambsquarters; [4]) | Plant response rating, Lambsquarters (lambsquarters; [5]) | Plant response rating (0 to 100), Ragweed (ragweed; postemergence) | Ragweed plant response rating (ragweed; [4]) | other results
1 | Clc1cnc(Oc2cccc(Cl)c2-n2cc(Cl)cn2)nc1 [Compound 220] | 100 | 10 | 90 | 100 | 10 | 60 | 0 | 60 | 50 | 50 | 70 | 95 | 0 | 5 | 5 | 15 | 50 | 75 | 10 | 10 | Barnyardgrass plant response rating (0 to 100 scale, 0 is no effect, 100 is complete control) (barnyardgrass [1]; 125 g ai/ha): 60; Corn plant response rating (0 to 100 scale) (corn; 125 g ai/ha): 0; Plant response rating, Blackgrass (blackgrass; [6]): 40; Plant response rating, Galium (galium; [6]): 80; Plant response rating, Foxtail, Giant (giant foxtail; [6]): 10; Plant response rating, Lambsquarters (lambsquarters; [6]): 55; Plant response rating, Ragweed (ragweed; [5]): 25; Plant response rating, Ragweed (ragweed; [6]): 15; Plant response rating (0 to 100), Soybean (soybean; postemergence): 40; Soybean plant response rating (soybean; [4]): 65; Plant response rating, Soybean (soybean; [5]): 95; Plant response rating, Soybean (soybean; [6]): 60; Plant response rating (0 to 100), Velvetleaf (velvetleaf; postemergence): 30; Velvetleaf plant response rating (velvetleaf; [4]): 50; Plant response rating, Velvetleaf (velvetleaf; [5]): 60; Plant response rating, Velvetleaf (velvetleaf; [6]): 65
2 | Clc1cnc(Oc2cccc(Cl)c2-n2cc(I)cn2)nc1 [Compound 181] | 100 | 30 | 60 | 90 | 0 | 30 | 5 | 5 | 25 | 60 | 65 | 80 | 10 | 10 | 10 | 75 | 100 | 100 | 5 | 35 | Barnyardgrass plant response rating (0 to 100 scale, 0 is no effect, 100 is complete control) (barnyardgrass [1]; 125 g ai/ha): 50; Corn plant response rating (0 to 100 scale) (corn; 125 g ai/ha): 0; Plant response rating, Blackgrass (blackgrass; Postemergence, 62 g ai/ha): 15; Plant response rating, Galium (galium; Postemergence, 62 g ai/ha): 70; Plant response rating, Foxtail, Giant (giant foxtail; Postemergence, 62 g ai/ha): 25; Plant response rating, Lambsquarters (lambsquarters; Postemergence, 62 g ai/ha): 100; Plant response rating, Ragweed (ragweed; [5]): 45; Plant response rating, Ragweed (ragweed; Postemergence, 62 g ai/ha): 30; Plant response rating (0 to 100), Soybean (soybean; postemergence): 35; Soybean plant response rating (soybean; [4]): 50; Plant response rating, Soybean (soybean; [5]): 95; Plant response rating, Soybean (soybean; Postemergence, 62 g ai/ha): 50; Plant response rating (0 to 100), Velvetleaf (velvetleaf; postemergence): 25; Velvetleaf plant response rating (velvetleaf; [4]): 20; Plant response rating, Velvetleaf (velvetleaf; [5]): 70; Plant response rating, Velvetleaf (velvetleaf; Postemergence, 62 g ai/ha): 40
3 | FC(F)c1cccc(Oc2ncc(Br)cn2)c1-n1cc(C(F)(F)F)cn1 [Compound 163] | 100 | 10 | 30 | 100 | 10 | 60 | 0 | 5 | 15 | 70 | 50 | 95 | 5 | 5 | 10 | 60 | 80 | 95 | 10 | 35 | Plant response rating, Barnyardgrass (barnyardgrass [1]; [7]): 50; Plant response rating, Corn (corn; [7]): 0; Plant response rating, Blackgrass (blackgrass; Postemergence, 62 g ai/ha): 5; Plant response rating, Galium (galium; Postemergence, 62 g ai/ha): 85; Plant response rating, Foxtail, Giant (giant foxtail; Postemergence, 62 g ai/ha): 10; Plant response rating, Lambsquarters (lambsquarters; Postemergence, 62 g ai/ha): 85; Plant response rating, Ragweed (ragweed; [5]): 60; Plant response rating, Ragweed (ragweed; Postemergence, 62 g ai/ha): 35; Plant response rating (0 to 100), Soybean (soybean; postemergence): 35; Soybean plant response rating (soybean; [4]): 50; Plant response rating, Soybean (soybean; [5]): 75; Plant response rating, Soybean (soybean; Postemergence, 62 g ai/ha): 80
